Measured values from article PMC10226132, “First-in-Class Selective Inhibitors of the Lysine Acetyltransferase KAT8” (Journal of Medicinal Chemistry, 2023).

Legend:
KAT2A = molecular target: T1, KAT2A (Homo sapiens, UniProt Q92830); assay: HotSpot KAT assay, KAT2A; format: biochemical; conditions: 200 μM, NI = no inhibition; for inhibition at 200 µM: read-out: % inhibition at 200 μM KAT2A (15 nM)
T1 construct: human KAT2A (aa 323–837, 15 nM); purchased Reaction Biology Corporation
Description: The effects of the compounds on other KATs were determined using the HotSpot KAT assay (Reaction Biology Corporation, Malvern, PA, USA) according to the supplier’s procedure. The recombinant catalytic domains of human KAT2A (aa 323–837, 15 nM), KAT2B (aa 492–658, 25 nM), KAT3B (aa 1284–1672, 1 nM), KAT6A (aa 488–778, 10 nM), KAT6B (aa 657–1069, 10 nM), and full length human KAT5 (25 nM) and KAT7 (25 nM) were used. Each enzyme was incubated with the relevant histone peptide [H3 peptide for KAT2A, KAT2B, KAT3B, KAT6A, and KAT7 (2.5–5 μM, depending on the KAT isoform); H2A peptide for KAT5 (1.25 μM); H4 peptide for KAT6B (2.5 μM)] as a substrate and radio-isotope-labeled [^3H]Acetyl-CoA (0.2–1.5 μM, depending on the KAT isoform) as an acetyl donor in the assay buffer [50 mM Tris–HCl (pH 8.0), 50 mM NaCl, 0.1 mM EDTA, 1 mM DTT, 0.1 mM PMSF, 1% DMSO] for 1 h at 30 °C in the presence or absence of various compounds (1% DMSO final) titrated in a 2-fold serial dilution starting at 200 μM. Histone peptide acetylation was assessed by liquid scintillation counting using a Tri-Carb 2800TR Liquid Scintillation Analyzer (Perkin Elmer). Experiments were performed in biological triplicates. Signal reduction compared to control was plotted (as inhibition percentage) as a function of compound concentration. In cases in which an IC50 was calculated, the values were fitted by nonlinear regression (GraphPad Prism 8.0).

KAT8 = molecular target: T2, KAT8 (Homo sapiens, UniProt Q9H7Z6); assay: CETSA target engagement in HT29 cells; format: cell-based; conditions: 100 μM, 4 h, 59 °C
T2 construct: endogenous in cells; host or cells: HT29
Description: Target engagement in cells was determined by CETSA.[65],[66] For CETSA experiments with cells treated in culture, ∼1 × 10^6 HT29 were treated with DMSO (0.5% v/v final) or 100 μM compound for 4 h at 37 °C and 5% CO2 in a humidified incubator. The cells were harvested, washed twice with PBS, and resuspended in PBS with protease inhibitors. The cell suspensions were then distributed into PCR tubes, heated at the indicated temperature in a SimpliAmp Thermal Cycler (Applied Biosystems) for 3 min, and then cooled for another 3 min at rt. The cell suspensions were then lysed by freeze-thawing three times with 3 min incubations in an ethanol/dry ice bath and water bath at 37 °C. The lysates were then centrifuged at 20,000×g for 30 min at 4 °C to remove cellular debris and protein aggregates, and lysates were prepared for WB analysis. Proteins were separated by SDS-PAGE on 13.5% gels and were transferred to nitrocellulose membranes (Biorad Laboratories). Membranes were blocked for 1 h and incubated overnight with the appropriate primary antibody at 4 °C. After incubation, membranes were washed and incubated with the appropriate secondary antibody (Biorad Laboratories) for 1 h at room temperature. […] The band signals were quantified using ImageJ and values normalized to the 37 °C DMSO control.

AHH-1 cells = assay: Proliferation of noncancer B lymphocyte AHH-1 cells; format: cell-based, human; conditions: 72 h; for effect on proliferation of AHH-1 cells: 25, 50, 100, 200 μM; for IC50: Homo sapiens, AHH-1, NI = no inhibition at 200 µM
Excerpt: Human commercially available AML U937, breast cancer MCF7, lung adenocarcinoma NCI-H460, H1299 and A-549, glioblastoma U251, B lymphocyte AHH1 cell lines were maintained in compete 10% foetal bovine serum (FBS,) RPMI 1640 (Euroclone, Milan, IT) medium. Human commercially available colon cancer HCT116 and HT29 lines and cervix adenocarcinoma HeLa cells were maintained in compete 10% FBS Dulbecco’s Modified Eagle Medium (DMEM) high glucose medium (Euroclone). L-Glutamine, FBS, and penicillin streptomycin mixture added to medium were obtained from Euroclone. All cell lines were cultured at 37 °C in a humidified atmosphere of 5% CO2:95% air and were tested for mycoplasma contamination routinely by RT-PCR.
For analysis of cell proliferation, cells were plated in sextuplicate on 96-well plates in complete media. After 24 h, cells were exposed to different drugs for 72 h. The inhibitory effect of different drugs was assessed by MTT (Sigma, St. Louis, MO, USA) colorimetric assays as previously reported.[67] Aqueous DMSO (0.5% v/v) was used as a control (untreated). The results are reported as “viability of drug-treated cells/viability of untreated cells” × 100 and represent the average ±SD of three independent experiments. IC50 values were using fitted by nonlinear regression using GraphPad Prism 8.0.

HT29 cells = assay: Cell cycle analysis by propidium iodide staining, HT29; format: cell-based, human; conditions: 72 h
Description: (§1) For the analysis of the progression of cells through cell cycle phases and sub-G1 peak identification, 24 h after plating, cells were treated with the different compounds. After 72 h, both floating and adherent cells were collected and fixed with cold 70% ethanol. At least 24 h after fixation, cells were incubated with 0.025 mg/mL Propidium Iodide for 15 min at room temperature and analyzed. For Annexin V analysis, 24 h after plating, cells were treated with 50 and 100 μM of the compounds. In the case of chloroquine experiments, 10 μM chloroquine (Sigma-Aldrich, A9165) was added 30 min before compounds. 72 h after treatment, both floating and adherent cells were collected and stained with an Annexin V-FITC apoptosis detection kit (ENZO #ALX-850-020-KI). Samples were incubated 15 min in the dark at rt, and 10,000 events were then analyzed.

H1299-EGFP-LC3 cells = assay: Fluorescence microscopy of autophagosomes in EGFP-LC3 H1299 cells; format: cell-based, human; conditions: increasing doses, 48 h
Description: The stable EGFP-LC3 H1299 cell line was used to detect autophagic structures by fluorescence spinning disk microscopy. Cells were grown on glass coverslips, treated with compounds for 48 h and fixed in 3.7% formaldehyde (Sigma, F1635) DNA was counterstained with 0.05 μg/mL DAPI (4,6-diamidino-2-phenylindole; Sigma-Aldrich, D9542). At least 500 cells were counted for each experimental point, and cells showing ≥15 dots were considered positive. Dots were counted using a pipeline created in a previous work on the CellProfiler software.[68] Data are presented as median with interquartile range. Samples were observed under a Nikon Eclipse Ti2 microscope with a 60× (1.4 NA) objective, equipped with a CrestOptics X-Light V3 confocal spinning disk and a back illuminated Kinetix sCMOS camera.

HeLa cells = assay: Annexin V/PI analysis, HeLa; format: cell-based, human; conditions: 50 and 100 μM, 72 h, compared to control
Description: as §1

T1 sequence (Q92830 323-837): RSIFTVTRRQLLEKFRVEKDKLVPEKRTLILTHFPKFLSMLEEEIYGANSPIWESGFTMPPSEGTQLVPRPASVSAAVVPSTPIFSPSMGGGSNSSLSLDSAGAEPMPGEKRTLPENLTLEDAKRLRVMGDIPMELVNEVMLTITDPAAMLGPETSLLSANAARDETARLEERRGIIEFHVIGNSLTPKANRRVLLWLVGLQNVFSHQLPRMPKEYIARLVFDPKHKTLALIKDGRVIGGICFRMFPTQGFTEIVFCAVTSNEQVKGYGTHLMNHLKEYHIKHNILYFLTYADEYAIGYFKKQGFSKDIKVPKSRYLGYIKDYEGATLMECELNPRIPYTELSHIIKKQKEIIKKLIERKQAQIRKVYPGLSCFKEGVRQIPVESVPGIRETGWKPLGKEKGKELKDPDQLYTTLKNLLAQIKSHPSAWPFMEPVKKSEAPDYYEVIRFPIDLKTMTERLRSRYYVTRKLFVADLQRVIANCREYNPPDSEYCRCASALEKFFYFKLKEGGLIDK
T2 sequence (Q9H7Z6 whole entry): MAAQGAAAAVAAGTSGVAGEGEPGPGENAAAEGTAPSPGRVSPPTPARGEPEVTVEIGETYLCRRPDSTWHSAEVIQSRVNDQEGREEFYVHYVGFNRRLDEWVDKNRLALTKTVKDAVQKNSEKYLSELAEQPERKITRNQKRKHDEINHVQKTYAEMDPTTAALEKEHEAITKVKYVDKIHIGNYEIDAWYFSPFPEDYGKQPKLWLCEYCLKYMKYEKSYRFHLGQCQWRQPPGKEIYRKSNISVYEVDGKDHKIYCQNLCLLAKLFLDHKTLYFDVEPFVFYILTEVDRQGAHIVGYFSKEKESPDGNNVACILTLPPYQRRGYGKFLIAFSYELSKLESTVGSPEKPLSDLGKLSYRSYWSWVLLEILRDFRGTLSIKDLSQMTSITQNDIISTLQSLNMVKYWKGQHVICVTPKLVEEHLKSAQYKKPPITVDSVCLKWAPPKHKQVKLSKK

O=C(O)c1ccc(N2N=C(c3ccccc3)/C(=C/c3ccc[nH]3)C2=O)cc1 [Compound 34, (Z)-4-(4-((1H-Pyrrol-2-yl)methylene)-5-oxo-3-phenyl-4,5-dihydro-1H-pyrazol-1-yl)benzoic Acid]
% inhibition at 200 μM KAT2A (15 nM) (KAT2A): did not inhibit
inhibition at 200 µM (KAT2A): 0%
target engagement (stabilization of KAT8 against thermal-induced aggregation) (KAT8): stabilize KAT8 against thermal-induced aggregation
effect on proliferation of AHH-1 cells (AHH-1 cells): did not significantly affect the proliferation
IC50 (AHH-1 cells): > 200 µM
change in the different stages of cell cycle, HT29 (HT29 cells): no significative change
EGFP-LC3 dots per cell (H1299-EGFP-LC3 cells): significantly increased
apoptotic cell population (Annexin V), HeLa (HeLa cells): only a slight increase in apoptotic cell population

CC1=NN(c2ccc(C(=O)O)cc2)C(=O)/C1=C\c1ccc[nH]1 [Compound 19, (Z)-4-(4-((1H-Pyrrol-2-yl)methylene)-3-methyl-5-oxo-4,5-dihydro-1H-pyrazol-1-yl)benzoic Acid]
% inhibition at 200 μM KAT2A (15 nM) (KAT2A): did not inhibit
inhibition at 200 µM (KAT2A): 0%
target engagement (stabilization of KAT8 against thermal-induced aggregation) (KAT8): stabilize KAT8 against thermal-induced aggregation
effect on proliferation of AHH-1 cells (AHH-1 cells): did not significantly affect the proliferation
IC50 (AHH-1 cells): > 200 µM
change in the different stages of cell cycle, HT29 (HT29 cells): no significative change
EGFP-LC3 dots per cell (H1299-EGFP-LC3 cells): significantly increased
apoptotic cell population (Annexin V), HeLa (HeLa cells): only a slight increase in apoptotic cell population
